Measurements as given in US9676997B2, “Compositions and methods for stabilizing luminogenic substrates” (Promega Corporation, priority 2014, dated 2017).
One block for each compound: values may come before it.

Tests used:
Assay type in all cases: physicochemical
[1] = Photostability of 1.25 mM furimazine in 50% propylene glycol:50% ethanol with or without 225 mM ATT, HPLC; settings: for 10% loss / 50% loss: in the light
Method: Specifically, a 2× stock solution of ATT in 50% propylene glycol:50% ethanol (v/v) was prepared, in which the final concentration of ATT was 64.4 mg/mL. A 2× stock solution of furimazine in 50% propylene glycol:50% ethanol (v/v) was also prepared, in which the final concentration of furimazine was 0.95 mg/mL. In one vial, the 2×ATT stock solution was diluted 1:1 in the 2×furimazine stock solution to create a solution containing 225 mM ATT and 1.25 mM furimazine. In a second vial, the 2×furimazine stock solution was diluted 1:1 in 50% propylene glycol:50% ethanol (v/v) to create a control solution without the additive ATT (i.e., “no additive furimazine” control) and containing 1.25 mM furimazine.
The content of each vial was dispensed into separate, clear HPLC vials with insert and these HPLC vials were placed at room temperature (i.e., about 20° C.) in the light (i.e., in the presence of overhead fluorescent light) and at 40° C. in the light. There was one HPLC vial per time point for each temperature.
Stability was measured by HPLC with 5 μL injection and detection at 262 nm. In each chromatogram, the area of the furimazine peak was determined. Stability curves were generated by plotting the area (10^6) vs. time (days) and are shown in FIGS. 13A and 13B for room temperature and 40° C., respectively.

[2] = Stability of 1.25 mM furimazine in 50% ethanol and 50% propylene glycol with or without 225 mM ATT, in the presence of light, HPLC and Arrhenius plots; settings: for relative peak area percentage at 262 nm: in the presence of light
Method: The stability of furimazine in the presence and absence of ATT was measured over time at different temperatures. This study was conducted in the presence of light. Specifically, 1.25 mM furimazine was present in a solution of 50% ethanol and 50% propylene glycol (i.e., the solution without ATT) or a solution of 50% ethanol and 50% propylene glycol with 225 mM ATT (i.e., the solution with ATT). […]
Following incubation, high performance liquid chromatography (HPLC) was utilized to identify the components of the respective solutions at each time point. Specifically, an Agilent 1100 HPLC instrument was used and equipped with a quaternary pump, thermostatted autosampler and column compartment, and a G1311B diode-array detector. The column used was a Synergi-MAX-RP (Phenomenex, Torrance, Calif.) 100 AÅ 50×4.6 2.5 μm. The run on the HPLC was a gradient run with 0.1% TFA in water and acetonitrile. Absorbance was measured at 262 nanometers (nm). Standards of furimazine and its known degradants were run to confirm both the retention time and absorbance trace. 5 μl of each solution was injected and the retention time of furimazine at room temperature was 5.1 minutes.
The results of the HPLC analysis are shown below in Tables 10 and 11 and FIGS. 4A and 4B, in which the values are reported as relative peak area percentage at 262 nm (i.e., the lamba max of the substrate). […] In each of FIGS. 4A and 4B, diamond is 1.25 mM furimazine incubated over time with or without 225 mM ATT, respectively, at −20° C., triangle is 1.25 mM furimazine incubated over time with or without 225 mM ATT, respectively, at 20° C., star is 1.25 mM furimazine incubated over time with or without 225 mM ATT, respectively, at 40° C., and cross is 1.25 mM furimazine incubated over time with or without 225 mM ATT, respectively, at 60° C.
Additionally, Arrhenius plots were generated for furimazine in the presence and absence of ATT to calculate the half-life of furimazine at various temperatures. The Arrhenius equation is as follows: […]
In FIG. 5, the slope was −10831.4, the intercept was 31.3561, and R^2 was 0.9813.
In FIG. 6, the slope was −10106.2, the intercept was 30.1809, and R^2 was 0.9984.

[3] = Stability of furimazine at 37° C. in different organic solvents with or without ATT, luminescence with NANOLUC luciferase; settings: 50% PG:50% ethanol, 60% PG:40% ethanol, 15% glycerol:85% ethanol, 250 or 300 mM ATT vs no ATT
Method: To further examine the stabilization of furimazine at 37° C., luminescence was measured after furimazine was incubated in the presence of different organic solvents, namely 50% (v/v) propylene glycol (PG):50% (v/v) ethanol, 60% (v/v) propylene glycol (PG):40% (v/v) ethanol, and 15% (v/v) glycerol:85% (v/v) ethanol.
1.25 mM stocks of furimazine were prepared in the following solutions: a) 50% propylene glycol:50% ethanol, 1.25 mM furimazine, 250 mM ATT; b) 60% propylene glycol:40% ethanol, 1.25 mM furimazine, 300 mM ATT; c) 15% glycerol:85% ethanol, 1.25 mM furimazine, 250 mM ATT; and inventory furimazine (Promega Corporation). Furimazine was first dissolved and then ATT was added. To make 4 mL of each sample, 2 mg furimazine and 143 mg of ATT (250 mM ATT) was added. For 300 mM ATT, 171 mg of ATT was added.
A portion of these samples was aliquoted into amber Starstead tubes with O-rings and then placed at 37° C. […] The remaining sample was placed at −20° C. in a 15 mL tube and monitored for precipitate formation.
Prior to assaying the samples, they were heated to room temperature (RT) and vortexed to ensure that any material that fell out of solution was re-suspended. […] The resulting dilutions were incubated for 3 minutes at RT, and luminescence was detected on a luminometer (GLOMAX Multi plus luminometer, Promega Corporation). […]

Compound: Cc1n[nH]c(=S)[nH]c1=O [ATT, 6-methyl-3-thioxo-3,4-dihydro-1,2,4-triazin-5(2H)-one]
- stabilization of furimazine against decomposition in the presence of light ([1]; 225 mM ATT, room temperature and 40° C.): stabilized furimazine against decomposition in the presence of light at different temperatures
- stabilization of furimazine against decomposition ([2]; 225 mM ATT, over time at different temperatures): stabilized furimazine against decomposition over time at different temperatures

- 10% loss ([1]; 40° C.): 0.4 days
- 50% loss ([1]; 40° C.): 3.6 days
- 10% loss ([1]; room temperature): 0.5 days
- 50% loss ([1]; room temperature): 2.1 days
- relative peak area percentage at 262 nm ([2]; 40° C., 0 days): 89.7%
- relative peak area percentage at 262 nm ([2]; 40° C., 1 day): 93.8%
- relative peak area percentage at 262 nm ([2]; 40° C., 5 days): 65%
- relative peak area percentage at 262 nm ([2]; 40° C., 8 days): 50.1%
- relative peak area percentage at 262 nm ([2]; 40° C., 14 days): 27%
- relative peak area percentage at 262 nm ([2]; 40° C., 30 days): 3.5%
- relative peak area percentage at 262 nm ([2]; 40° C., 90 days): 0%
- relative peak area percentage at 262 nm ([2]; 60° C., 0 days): 89.7%
- relative peak area percentage at 262 nm ([2]; 60° C., 1 day): 70.1%
- relative peak area percentage at 262 nm ([2]; 60° C., 5 days): 1.3%^
- relative peak area percentage at 262 nm ([2]; 60° C., 8 days): 0%
- relative peak area percentage at 262 nm ([2]; 60° C., 14 days): 0%
- relative peak area percentage at 262 nm ([2]; 60° C., 30 days): 0%
- relative peak area percentage at 262 nm ([2]; 60° C., 90 days): 0%
- relative peak area percentage at 262 nm ([2]; RT (20° C.), 0 days): 89.7%
- relative peak area percentage at 262 nm ([2]; RT (20° C.), 1 day): 97.2%
- relative peak area percentage at 262 nm ([2]; RT (20° C.), 5 days): 93.8%
- relative peak area percentage at 262 nm ([2]; RT (20° C.), 8 days): 91.7%
- relative peak area percentage at 262 nm ([2]; RT (20° C.), 14 days): 86.7%
- relative peak area percentage at 262 nm ([2]; RT (20° C.), 30 days): 74.8%
- relative peak area percentage at 262 nm ([2]; RT (20° C.), 90 days): 27.1%
- relative peak area percentage at 262 nm ([2]; −20° C., 0 days): 89.7%
- relative peak area percentage at 262 nm ([2]; −20° C., 1 day): 98.3%
- relative peak area percentage at 262 nm ([2]; −20° C., 5 days): 96.9%
- relative peak area percentage at 262 nm ([2]; −20° C., 8 days): 98.2%
- relative peak area percentage at 262 nm ([2]; −20° C., 14 days): 97.7%
- relative peak area percentage at 262 nm ([2]; −20° C., 30 days): 98.3%
- relative peak area percentage at 262 nm ([2]; −20° C., 90 days): 95.3%
Compound: O=c1c(Cc2ccco2)nc2c(Cc3ccccc3)[nH]c(-c3ccccc3)cn1-2 [Furimazine, furimazine]
- stability of furimazine (normalized RLUs over time) [3]: more stable in the presence of ATT than in the absence of ATT for each organic solvent
- Arrhenius plot intercept ([2]; decomposition of furimazine): 30.1809
- Arrhenius plot slope ([2]; decomposition of furimazine): −10106.2
